“Also recorded” adds a separate entry of the source. Read-outs that look alike come from different tables or passages of the source.
Experiments:
[1] = target: PDE7B (Homo sapiens, UniProt Q9NP56); assay: PDE isoform selectivity panel: PDE7B; assay type: biochemical; conditions: PDE7B; 10 μM compound
[2] = target: PDE11A4 (Homo sapiens, UniProt Q9HCR9); assay: PDE isoform selectivity panel: PDE11A4; assay type: biochemical; conditions: 10 μM compound
[3] = target: PDE1C (Homo sapiens, UniProt Q14123); assay: PDE isoform selectivity panel: PDE1C; assay type: biochemical; conditions: PDE1C; 10 μM compound
[4] = target: T1, PDE4A1A (Homo sapiens, UniProt P27815); assay: IMAP fluorescence polarization assay with purified PDE4A1A; assay type: biochemical; design: purchased BPS Bioscience; conditions: Table 3; three separate experiments (SD provided); read-out: PDE4A IC50
[5] = target: T2, PDE3A (Homo sapiens, UniProt Q14432); assay: PDE isoform selectivity panel: PDE3A; assay type: biochemical; conditions: 10 μM compound, read-out: % Inhibition of the Enzyme Activity at 10 μM
T2 construct: purchased BPS Bioscience Inc

[6] = test system: PDE4; conditions: read-out: EC50 (concentration at 50% activity); FIG. 3; four separate experiments; normalized to 10 μM 1 response
[7] = target: PDE8A1 (Homo sapiens, UniProt O60658); assay: PDE isoform selectivity panel: PDE8A1; assay type: biochemical; conditions: 10 μM compound
[8] = target: T1, PDE4A1A
[9] = target: T3, PDE9A2 (Homo sapiens, UniProt O76083); assay: PDE isoform selectivity panel: PDE9A2; assay type: biochemical; conditions: 10 μM compound
T3 construct: purchased BPS Bioscience Inc

[10] = target: T4, PDE4C1 (Homo sapiens, UniProt Q08493); assay: PDE isoform selectivity panel: PDE4C1; assay type: biochemical
T4 construct: purchased BPS Bioscience Inc

[11] = target: PDE2A (Homo sapiens, UniProt O00408); assay: PDE isoform selectivity panel: PDE2A; assay type: biochemical; conditions: PDE2A; 10 μM compound
[12] = test system: PKA reporter Reg-F[1]:Cat-F[2] in β2AR-HEK293 cells; assay: Protein-fragment complementation (Rluc PCA PKA reporter) cell-based assay; conditions: FIG. 4B; 100 μM and 10 μM, 30 min
[13] = target: T5, PDE5A1 (Homo sapiens, UniProt O76074); assay: PDE isoform selectivity panel: PDE5A1; assay type: biochemical; conditions: PDE5A1; 10 μM compound
T5 construct: purchased BPS Bioscience Inc

[14] = target: T6, PDE4D2 (Homo sapiens, UniProt Q08499); assay: PDE isoform selectivity panel: PDE4D2; assay type: biochemical
T6 construct: purchased BPS Bioscience Inc

[15] = target: T7, PDE3B (Homo sapiens, UniProt Q13370); assay: PDE isoform selectivity panel: PDE3B; assay type: biochemical
T7 construct: purchased BPS Bioscience Inc

[16] = target: T8, PDE10A1 (Homo sapiens, UniProt Q9Y233); assay: PDE isoform selectivity panel: PDE10A1; assay type: biochemical
T8 construct: purchased BPS Bioscience Inc

[17] = target: T9, PDE4B1 (Homo sapiens, UniProt Q07343); assay: PDE isoform selectivity panel: PDE4B1; assay type: biochemical
T9 construct: purchased BPS Bioscience Inc

[18] = target: PDE7A (Homo sapiens, UniProt Q13946); assay: PDE isoform selectivity panel: PDE7A; assay type: biochemical; conditions: PDE7A; 10 μM compound
[19] = target: T10, PDE1A (Homo sapiens, UniProt P54750); assay: PDE isoform selectivity panel: PDE1A; assay type: biochemical; conditions: 10 μM compound
T10 construct: purchased BPS Bioscience Inc

[20] = target: PDE1B (Homo sapiens, UniProt Q01064); assay: PDE isoform selectivity panel: PDE1B; assay type: biochemical; conditions: read-out: % Inhibition of the Enzyme Activity at 10 μM
[21] = target: T11, PDE4B2 (Homo sapiens, UniProt Q07343); assay: PDE isoform selectivity panel: PDE4B2; assay type: biochemical
T11 construct: purchased BPS Bioscience Inc

[22] = read-out: % Inhibition of the Enzyme Activity at 10 μM

T3 sequence (O76083 1-533 isoform O76083-2): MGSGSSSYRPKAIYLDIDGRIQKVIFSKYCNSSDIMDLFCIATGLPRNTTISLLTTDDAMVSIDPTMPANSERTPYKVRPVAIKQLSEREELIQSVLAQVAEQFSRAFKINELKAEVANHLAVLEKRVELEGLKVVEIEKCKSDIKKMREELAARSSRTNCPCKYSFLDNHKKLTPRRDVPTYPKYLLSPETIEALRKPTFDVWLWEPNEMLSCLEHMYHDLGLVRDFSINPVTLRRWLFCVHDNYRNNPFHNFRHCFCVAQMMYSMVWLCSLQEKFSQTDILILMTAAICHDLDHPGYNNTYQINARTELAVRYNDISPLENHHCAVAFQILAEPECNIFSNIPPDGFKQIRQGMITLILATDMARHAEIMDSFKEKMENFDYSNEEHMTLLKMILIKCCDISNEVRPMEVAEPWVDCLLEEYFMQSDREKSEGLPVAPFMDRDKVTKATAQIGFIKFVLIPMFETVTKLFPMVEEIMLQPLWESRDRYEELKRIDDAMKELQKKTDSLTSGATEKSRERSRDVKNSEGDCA
Chain of PDE11A4 (Q9HCR9 whole entry, canonical isoform): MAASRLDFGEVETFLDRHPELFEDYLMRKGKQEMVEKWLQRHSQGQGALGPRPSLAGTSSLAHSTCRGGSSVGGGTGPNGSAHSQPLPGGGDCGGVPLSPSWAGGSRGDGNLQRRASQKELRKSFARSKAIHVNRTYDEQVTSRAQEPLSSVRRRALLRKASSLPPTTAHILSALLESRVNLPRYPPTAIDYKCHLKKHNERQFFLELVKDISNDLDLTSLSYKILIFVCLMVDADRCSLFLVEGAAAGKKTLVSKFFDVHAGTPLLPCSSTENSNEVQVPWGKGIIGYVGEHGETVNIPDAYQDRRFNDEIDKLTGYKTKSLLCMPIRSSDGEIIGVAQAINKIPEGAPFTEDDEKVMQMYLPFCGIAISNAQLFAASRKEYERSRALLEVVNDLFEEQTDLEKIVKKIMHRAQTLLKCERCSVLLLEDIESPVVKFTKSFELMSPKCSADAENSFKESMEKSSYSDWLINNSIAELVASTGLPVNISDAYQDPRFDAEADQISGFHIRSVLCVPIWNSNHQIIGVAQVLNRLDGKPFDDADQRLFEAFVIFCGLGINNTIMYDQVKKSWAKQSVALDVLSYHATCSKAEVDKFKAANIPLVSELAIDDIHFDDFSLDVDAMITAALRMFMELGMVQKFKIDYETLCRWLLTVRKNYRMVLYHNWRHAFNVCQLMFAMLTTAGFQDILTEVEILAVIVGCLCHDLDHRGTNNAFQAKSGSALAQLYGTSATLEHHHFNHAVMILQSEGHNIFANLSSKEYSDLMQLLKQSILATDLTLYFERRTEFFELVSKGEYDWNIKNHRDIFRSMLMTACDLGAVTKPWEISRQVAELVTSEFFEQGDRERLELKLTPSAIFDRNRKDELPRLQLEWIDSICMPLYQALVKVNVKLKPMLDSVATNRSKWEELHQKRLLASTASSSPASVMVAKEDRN
T1 sequence (P27815 1-647 isoform P27815-4): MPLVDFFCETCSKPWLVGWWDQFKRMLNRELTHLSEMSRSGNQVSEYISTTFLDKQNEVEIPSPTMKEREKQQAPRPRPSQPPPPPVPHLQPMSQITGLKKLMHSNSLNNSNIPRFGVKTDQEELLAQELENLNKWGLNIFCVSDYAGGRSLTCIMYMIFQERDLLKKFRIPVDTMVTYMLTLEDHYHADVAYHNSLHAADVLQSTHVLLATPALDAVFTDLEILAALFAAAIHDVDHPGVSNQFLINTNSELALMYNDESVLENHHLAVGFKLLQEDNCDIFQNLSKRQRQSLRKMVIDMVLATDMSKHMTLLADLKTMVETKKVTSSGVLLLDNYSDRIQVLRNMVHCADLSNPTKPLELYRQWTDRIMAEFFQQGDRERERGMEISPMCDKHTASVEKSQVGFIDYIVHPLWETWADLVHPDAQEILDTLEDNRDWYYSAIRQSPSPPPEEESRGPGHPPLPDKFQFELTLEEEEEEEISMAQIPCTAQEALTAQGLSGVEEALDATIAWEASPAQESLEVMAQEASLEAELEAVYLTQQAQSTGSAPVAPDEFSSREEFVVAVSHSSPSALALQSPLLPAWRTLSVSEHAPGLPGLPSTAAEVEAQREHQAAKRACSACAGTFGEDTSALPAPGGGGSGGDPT
T2 sequence (Q14432 whole entry, canonical isoform): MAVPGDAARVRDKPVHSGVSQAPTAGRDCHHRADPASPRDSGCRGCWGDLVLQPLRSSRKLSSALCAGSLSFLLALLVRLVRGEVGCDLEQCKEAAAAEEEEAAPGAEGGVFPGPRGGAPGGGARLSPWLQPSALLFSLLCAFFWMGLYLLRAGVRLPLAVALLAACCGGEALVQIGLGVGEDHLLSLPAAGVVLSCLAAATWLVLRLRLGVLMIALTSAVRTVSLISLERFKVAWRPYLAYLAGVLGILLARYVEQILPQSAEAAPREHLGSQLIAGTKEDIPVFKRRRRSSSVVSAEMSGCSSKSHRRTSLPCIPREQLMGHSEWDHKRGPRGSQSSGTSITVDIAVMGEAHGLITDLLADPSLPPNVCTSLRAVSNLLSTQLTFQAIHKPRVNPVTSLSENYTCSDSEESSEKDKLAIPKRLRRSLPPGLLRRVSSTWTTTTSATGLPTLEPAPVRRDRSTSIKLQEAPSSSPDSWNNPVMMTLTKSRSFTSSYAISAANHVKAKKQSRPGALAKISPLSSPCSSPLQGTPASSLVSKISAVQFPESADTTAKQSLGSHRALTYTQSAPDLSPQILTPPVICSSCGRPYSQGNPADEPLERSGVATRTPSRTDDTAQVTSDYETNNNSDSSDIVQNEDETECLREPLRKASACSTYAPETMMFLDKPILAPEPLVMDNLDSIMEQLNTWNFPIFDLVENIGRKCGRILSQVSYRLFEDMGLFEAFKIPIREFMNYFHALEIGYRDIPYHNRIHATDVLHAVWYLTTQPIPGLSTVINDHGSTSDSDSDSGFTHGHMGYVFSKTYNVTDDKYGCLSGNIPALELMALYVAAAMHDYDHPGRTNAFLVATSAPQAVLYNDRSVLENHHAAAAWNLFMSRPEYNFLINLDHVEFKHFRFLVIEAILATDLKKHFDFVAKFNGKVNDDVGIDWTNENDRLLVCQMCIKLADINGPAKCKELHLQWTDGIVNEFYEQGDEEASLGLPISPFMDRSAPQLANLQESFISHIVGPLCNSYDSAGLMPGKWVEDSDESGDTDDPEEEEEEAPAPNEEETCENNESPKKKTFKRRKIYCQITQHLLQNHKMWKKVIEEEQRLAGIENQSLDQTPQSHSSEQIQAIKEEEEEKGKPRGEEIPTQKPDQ
Chain of PDE1C (Q14123 whole entry, canonical isoform): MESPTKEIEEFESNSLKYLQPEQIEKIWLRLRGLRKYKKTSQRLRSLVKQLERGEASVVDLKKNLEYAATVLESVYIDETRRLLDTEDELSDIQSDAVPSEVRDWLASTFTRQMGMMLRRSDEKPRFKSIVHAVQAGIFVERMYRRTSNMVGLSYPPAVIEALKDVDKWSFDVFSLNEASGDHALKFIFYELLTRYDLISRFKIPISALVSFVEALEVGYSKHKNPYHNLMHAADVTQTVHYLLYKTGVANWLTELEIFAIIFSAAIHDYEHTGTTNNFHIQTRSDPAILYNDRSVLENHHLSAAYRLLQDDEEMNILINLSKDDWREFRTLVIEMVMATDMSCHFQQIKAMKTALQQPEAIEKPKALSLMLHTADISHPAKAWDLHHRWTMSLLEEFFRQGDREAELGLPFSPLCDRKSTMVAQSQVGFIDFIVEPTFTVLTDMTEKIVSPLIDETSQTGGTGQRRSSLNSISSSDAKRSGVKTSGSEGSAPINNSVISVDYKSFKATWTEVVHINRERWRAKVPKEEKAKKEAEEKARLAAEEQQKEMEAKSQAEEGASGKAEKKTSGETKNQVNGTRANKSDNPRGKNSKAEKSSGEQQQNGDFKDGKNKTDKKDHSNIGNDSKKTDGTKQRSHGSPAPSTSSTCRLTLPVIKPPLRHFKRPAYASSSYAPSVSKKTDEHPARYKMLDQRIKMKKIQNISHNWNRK
T9 sequence (Q07343 whole entry, canonical isoform): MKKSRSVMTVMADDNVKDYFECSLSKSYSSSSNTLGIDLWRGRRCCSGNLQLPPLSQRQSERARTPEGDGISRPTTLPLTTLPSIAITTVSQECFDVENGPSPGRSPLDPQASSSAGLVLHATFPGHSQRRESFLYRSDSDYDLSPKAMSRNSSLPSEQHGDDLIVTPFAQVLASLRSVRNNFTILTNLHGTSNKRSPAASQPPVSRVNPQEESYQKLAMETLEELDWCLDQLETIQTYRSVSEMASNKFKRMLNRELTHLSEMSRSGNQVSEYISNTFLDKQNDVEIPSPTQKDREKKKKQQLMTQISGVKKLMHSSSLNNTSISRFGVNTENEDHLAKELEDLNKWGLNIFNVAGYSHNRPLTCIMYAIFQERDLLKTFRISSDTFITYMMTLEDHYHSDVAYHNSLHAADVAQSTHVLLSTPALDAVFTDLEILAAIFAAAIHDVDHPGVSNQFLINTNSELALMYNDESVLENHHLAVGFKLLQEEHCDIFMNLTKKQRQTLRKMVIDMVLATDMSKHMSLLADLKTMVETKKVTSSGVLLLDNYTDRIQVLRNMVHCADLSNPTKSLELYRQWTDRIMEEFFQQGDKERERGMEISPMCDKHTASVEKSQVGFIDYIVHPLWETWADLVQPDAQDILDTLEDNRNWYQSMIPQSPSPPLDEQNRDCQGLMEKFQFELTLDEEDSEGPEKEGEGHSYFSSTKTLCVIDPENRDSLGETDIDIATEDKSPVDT

For `COc1ccc(OC)c(-c2nnc3n2N=C(c2ccc(OC)c(O[C@@H]4CCOC4)c2)CS3)c1` [Compound 10, (R)-3-(2,5-dimethoxyphenyl)-6-(4-methoxy-3-(tetrahydrofuran-3-yloxy)phenyl)-7H-[1,2,4]-triazolo[3,4-b][1,3,4]thiadiazine], the “% Inhibition of the Enzyme Activity at 10 μM” value (shortened to “% Inhibition”) [1] was 43%, the “% Inhibition” value [2] was “inactive” and the inhibition at 10 µM [2, 22] was under 26%. For the same molecule, the “% Inhibition” value [3] was 49%, the IC50 [4] was 3 nM and the inhibition at 10 µM [5] was 56%. The EC50 [6] was 2.3 nM, the “% Inhibition” value [7] was “inactive” and the IC50 [8] was “Sub-nanomolar potencies”. The “% Inhibition” value [9] was “inactive”, the inhibition at 10 µM [9, 22] was under 26% and the IC50 [10] was 46 nM. The “% Inhibition” value [11] was 68%, the “effect on luminescence signal (PKA activation)” value [12] was “marked loss of luminescence; also recorded: dose-dependent inhibition” and the “% Inhibition” value [13] was 58%. It also gave an IC50 [14] of 1.9 nM, an IC50 [15] of 4600 nM and an IC50 [16] of 632 nM. For the same molecule, the IC50 [17] was 2.3 nM, the “% Inhibition” value [18] was 48% and the “% Inhibition” value [19] was 36%. The inhibition at 10 µM [20] was 52% and the IC50 [21] was 1.6 nM.
